Test results published in patent EP4385495A1, “NANOSYSTEMS FOR THE ENCAPSULATION OF THERAPEUTIC AGENTS” (National Technical University of Athens, priority 2022, dated 2024).

Assays:
[1] = Body weight in collagenase-induced osteoarthritis rat model; format: in vivo, Wistar rats
Method: (§1) In order to understand the anti-inflammatory and antioxidant potential of the nanoparticles of the invention in vivo an experimental animal model of osteoarthritis (OA) was established. The OA lesions were caused by matrix degradation of articular cartilage using enzymatic means, such as collagenase type-II. Following the induction of osteoarthritis, the studied nanoparticles were administered for 8 weeks in which period the morphological and behavioral changes were measured and finally histological analysis of the articular cartilage samples concluded the in vivo study.
(§2) Rats were anesthetized with chloral hydrate. The right knee joints of Group I were injected with normal saline solution and served as a control. Animals from the groups II, III, IV, V, VI, VII were injected with collagenase type II (Clostridium histolyticum). Collagenase (125 collagen digestion unit/mg) was dissolved in saline, and it was injected intra-articularly into the right knee joint twice on days 1 and 4 of the experiment (Al-Saffar, F., H. Ganabadi and S. Fakurazi. Collagenase and sodium iodoacetate-induced experimental osteoarthritis model in Sprague dawley rats. Asian J. Sci. Res. 2: 1-13, 2009). The left knees of all animals were left untreated as a control.
(§3) Changes in body weight and knee diameter were measured on the 1st, 4th,11th,21st,31st,41st,51st, 61st, 71st day before every injection. Knee diameter was measured using a digital caliper. […] A change in body weight is also measured as one of the parameters to assess the course of the disease in the OA animal models.

[2] = test system: experimental animal model of osteoarthritis (OA); test: von Frey mechanical allodynia test in osteoarthritis rat model; format: in vivo, Wistar rats; conditions: for Paw Withdrawal Threshold (%): right paw/(right paw + left paw)*100
Method: Healthy adult male Wistar rats (150-200 g) were used for the study, with water and food ad libitum, at a constant temperature of 22°C and controlled lighting (12 h light/12 h dark cycle). […] As far as the dispersion procedure of the injectables is concerned, all the natural compounds were dissolved in saline solution, whereas the studied nanoparticles were mechanically grinded in a mortar and pestle set with saline solution and Tween 20 (2% w/v) and heated at 36 °C before each treatment. There were six treatments administered every 10 days. At the end of the experiment rats were euthanized and both knees were collected for histological analysis. Rats were anesthetized with chloral hydrate. The right knee joints of Group I were injected with normal saline solution and served as a control. Animals from the groups II, III, IV, V, VI, VII were injected with collagenase type II (Clostridium histolyticum). Collagenase (125 collagen digestion unit/mg) was dissolved in saline, and it was injected intra-articularly into the right knee joint twice on days 1 and 4 of the experiment ([…] and S. Fakurazi. Collagenase and sodium iodoacetate-induced experimental osteoarthritis model in Sprague dawley rats. Asian J. Sci. Res. 2: 1-13, 2009). The left knees of all animals were left untreated as a control. For the evaluation of the effectiveness and time of release of the encapsulated compounds, all animals were subjected to a series of behavioral testing in addition to the measurements of body weight and knees diameter change. The experimental protocol of the present study followed the combination of three different behavioral tests, which are von Frey mechanical allodynia test, grid walking and slope walking test. Behavioral tests are performed in three phases, at the beginning before the start of treatment, in the middle of treatment (approximately 35-40 days) and at the end (after the 70th day). Mechanical allodynia was tested by the von Frey method which detects pain threshold as the paw withdrawal response. For the testing, rats were placed into plastic chambers that allow access to the plantar surface of the hind paws. […] In Table 15 below, the nociceptive threshold is defined as: nociceptive threshold (%) = ([…])/((nociceptive; threshold on right paw + nociceptive threshold of left paw))*100 [formula] Table 13: von Frey-paw withdrawal threshold (g)

[3] = test system: experimental animal model of osteoarthritis (OA); test: Slope walking test in osteoarthritis rat model; format: in vivo, Wistar rats
Method: as §2
Walking on an inclined plane was used for the clinical assessment of motor function in rats after induction of OA. The method consists of placing the animal on an inclined plane and then measuring the time (seconds) needed for the animals to go up the walking tray.

[4] = test system: experimental animal model of osteoarthritis (OA); test: Knee diameter (digital caliper) and gross observations in collagenase-induced osteoarthritis rat model; format: in vivo, Wistar rats; conditions: for Right knee diameter: collagenase-injected knee; for Left knee diameter: untreated control knee
Method: as §1, §2, §3

[5] = test system: experimental animal model of osteoarthritis (OA); test: Grid-walking test in osteoarthritis rat model; format: in vivo, Wistar rats
Method: as §2
In this test the rats were allowed to explore freely for 4 minutes in a wire grid and when one of the limbs fell below the grid surface during free walking, the observer counted the number of foot-fault errors (footslips) (Starkey, M. L., Barritt, A. W., Yip, P. K., Davies, M., Hamers, F. P. T., McMahon, S. B., & Bradbury, E. J. (2005). Assessing behavioural function following a pyramidotomy lesion of the corticospinal tract in adult mice. Experimental Neurology, 195(2), 524-539. doi:10.1016/j.expneurol.2005.0).

[6] = CCK-8 viability assay; format: cell-based; conditions: human, primary human chondrocytes; 1 µM, 72h; positive control set to 100; read-out: Mean % relative viability
Method: b) The viability of human primary chondrocytes was evaluated following incubation with increasing concentrations of either the pure Naringin (S1) or the nanosystems (Samples S2 and S3) at 2-10-50µM of encapsulated Naringin (1:5 serial dilutions) for 72h (higher concentrations were not used because the nanosystems become insoluble and aggregates sediment on the cell monolayer). For S2 this corresponded to 6,4 µg/ml (for 2 µM of Naringin), 32 µg/ml (for 10 µM of Naringin) and 158 µg/ml (for 50 µM of Naringin) respectively, of total NP concentration. For S3 (CS[PLA[NAR]]) the total NP concentrations to provide the same µM of encapsulated Naringin were 14,4 / 72 / 360 µg/m). As control for the nanosystems, a blank PLA nanoparticle preparation coated with chitosan (S4) was used, at the same µg/ml polymer concentration like the ones used to achieve the 2-10-50µM range for Naringin (the difference being that the blank contains no Naringin). Finally, the blank S4 was used at the 14,4/72/360 µg/ml concentration range (1:5 serial dilutions). Following incubation, the CCK-8 viability kit was used according to manufacturer's instructions (Sigma, 96992-500TESTS-F). Macroscopical and microscopical observation confirmed the proper complete solubility and dispersion of the Nanoparticles. Importantly, healthy cell morphology was observed (spindle-like attached cells with several processes) with concomitant absence of undissolved material.
Table 5. Effect of the natural products and the nanosystems on the relative cell viability of primary human chondrocytes. Measurements obtained using the CCK-8 viability kit. Values normalized to positive control (PC; set to 100; arbitrary unit). Samples' coding: S1= pure Naringin, S2=Naringin encapsulated in PLA nanoparticles [PLA[NAR]], S3=Naringin encapsulated in PLA nanoparticles coated with chitosan CS[PLA[NAR]], and S4=Blank PLA nanoparticles coated with chitosan, CS(PLA[---]].

[7] = test system: RAW264.7 cells; test: MTT cell viability assay; format: cell-based, mouse; conditions: 24h
From the text: The MTT (3-[4,5-dimethylthiazol-2-yl]-2,5 diphenyl tetrazolium bromide) assay is based on the ability of viable cells with active metabolism to convert the yellow MTT to a purple formazan product, which determines mitochondrial activity. The MTT formazan product agglomerates as an insoluble residuum within the cells, which can be solubilized (in this protocol with DMSO) for homogeneous measurement. Thus, any increase or decrease in the number of viable cells can be detected by measuring the formazan concentration reflected in the optical density (OD) measurement at 540 nm with a reference absorption of 720 nm. This assay is broadly used to measure the in vitro cytotoxic effects of drugs on cell lines or primary cells. For the experimental procedure a standard solution of MTT 1mg/mL in PBS was prepared which after filtration ([…] filter (Millipore, Carrigtwohill, Ireland)) was stored in the dark (4-8 °C) until use. In brief, RAW 264.7 cells were seeded in a 96-well plate at a density of 30.000 cells/ in 100 µL of medium per well. […] This was followed by incubation for 24 h, 48 h and 72 h. At the end of the incubation 10 µL of MTT was added to each well followed by incubation for 4 hours, for the formation of the formazan crystals. The formazan crystals were then dissolved by adding DMSO and stirring lightly for 30 min, after which the absorbance was measured in a plate reader at 540 nm with a reference absorbance of 720 nm. […] Table 4: % cell viability after treatment of RAW264.7 cells with the samples

[8] = 1st injection CO/saline (before treatment)
[9] = 2nd injection CO/saline (before treatment)
[10] = 70 days (end of experimental protocol)

With CC(C)Cc1ccc(C(C)C(=O)O)cc1 (centres unmarked) [IBUPROFEN, ibuprofen] the “Body Weight (BW)” value [1, 8] was 234 g, the “Body Weight (BW)” value ([1]; 1st treatment, 10 mg/kg (S1, ibuprofen i.p.; nanoparticles i.a.), every 10 days) was 245 g and the “Body Weight (BW)” value [1, 9] was 230 g. For the same molecule, the “Body Weight (BW)” value ([1]; 2nd treatment, 10 mg/kg (S1, ibuprofen i.p.; nanoparticles i.a.)) was 276 g, the “Body Weight (BW)” value ([1]; 3rd treatment, 10 mg/kg (S1, ibuprofen i.p.; nanoparticles i.a.)) was 296 g and the “Body Weight (BW)” value ([1]; 4th treatment, 10 mg/kg (S1, ibuprofen i.p.; nanoparticles i.a.)) was 303 g. The “Body Weight (BW)” value ([1]; 5th treatment, 10 mg/kg (S1, ibuprofen i.p.; nanoparticles i.a.)) was 308 g, the “Body Weight (BW)” value ([1]; 6th treatment, 10 mg/kg (S1, ibuprofen i.p.; nanoparticles i.a.)) was 313 g and the “% Changes in Body Weight (BW)” value ([1]; 11 days (before treatment)) was 4,7%. For the same molecule, the “% Changes in Body Weight (BW)” value [1, 10] was 40,2%, the “Body Weight (BW)” value ([1]; final, 10 mg/kg (S1, ibuprofen i.p.; nanoparticles i.a.)) was 328 g and the “von Frey-paw withdrawal threshold” value ([2]; 11 days (before treatment)) was 59,78 g. For the same molecule, the “von Frey-paw withdrawal threshold” value ([2]; 70 days (end of experimental protocol), 10 mg/kg (S1, ibuprofen i.p.; nanoparticles i.a.)) was 83,8 g, the “von Frey-paw withdrawal threshold” value ([2]; left-control paw) was 93,9 g and the “Paw Withdrawal Threshold (%)” value ([2]; 11 days (before treatment)) was 38,90%. The “Paw Withdrawal Threshold (%)” value [2, 10] was 45,44%, the “Slope Walking” value ([3]; 11 days (before treatment)) was 9,8 sec and the “Slope Walking” value [3, 10] was 8,9 sec. For the same molecule, the “% Changes in Left knee diameter” value ([4]; 11 days (before treatment)) was 0,02%, the “% Changes in Right knee diameter” value ([4]; 11 days (before treatment)) was 0,91% and the “% Changes in Left knee diameter” value [4, 10] was 0,44%. For the same molecule, the “% Changes in Right knee diameter” value [4, 10] was 0,37%, the Right knee diameter [4, 8] was 0,8128 cm and the Right knee diameter ([4]; 1st treatment, 10 mg/kg (S1, ibuprofen i.p.; nanoparticles i.a.)) was 0,8202 cm. The Right knee diameter [4, 9] was 0,8192 cm, the Right knee diameter ([4]; 3rd treatment) was 0,8172 cm and the Right knee diameter ([4]; 4th treatment) was 0,8174 cm. The Right knee diameter ([4]; 5th treatment) was 0,817 cm, the Right knee diameter ([4]; 6th treatment) was 0,816 cm and the Right knee diameter ([4]; final) was 0,8158 cm. The Left knee diameter ([4]; 1st injection CO/saline) was 0,8158 cm, the Left knee diameter ([4]; 1st treatment) was 0,816 cm and the Left knee diameter ([4]; 2nd injection CO/saline) was 0,816 cm. For the same molecule, the Left knee diameter ([4]; 4th treatment) was 0,8184 cm, the Left knee diameter ([4]; final) was 0,8194 cm and the “Foot fault in grid-walk test (4 min)” value ([5]; 11 days left paw) was 1,4. For the same molecule, the “Foot fault in grid-walk test (4 min)” value ([5]; 11 days right paw) was 2,8, the “Foot fault in grid-walk test (4 min)” value ([5]; 40 days left paw) was 1,8 and the “Foot fault in grid-walk test (4 min)” value ([5]; 40 days right paw) was 1,2. The “Foot fault in grid-walk test (4 min)” value ([5]; 70 days left paw) was 1, the “Foot fault in grid-walk test (4 min)” value ([5]; 70 days right paw) was 1 and the viability at 72 h, 1 µM [6] was 100%.

With COc1cc(C2Oc3cc([C@H]4Oc5cc(O)cc(O)c5C(=O)[C@@H]4O)ccc3OC2CO)ccc1O (some centres unmarked) [PC (Silibinin), silibinin] the “% cell viability” value ([7]; 25 µM) was 30% and the “% cell viability” value ([7]; 50 µM) was 20%.
